Measurements reported in publication PMC5104457, “ATP-Competitive MLKL Binders Have No Functional Impact on Necroptosis” (PLoS ONE, 2016).

How the values were obtained:
FADD (-/-) Jurkat cells = test: Viability experiment in the absence of TNF; type: cell-based; conditions: FADD deficient Jurkat cells, Fig 3A
Protocol: Necroptosis assays were performed at Charles River Laboratories (United Kingdom) and at Biogen. […] On the day of the experiment, cells were counted using Nexcelom Bioscience Cell Meter Vision and pelleted by centrifugation. Cell pellets were resuspended in fresh medium at 500,000 cells per mL and transferred to assay-ready compound plates prepared in 384-well white TC plates (Greiner #781080) at 20μl cells per well. Cells and compound were incubated at room temperature for 30 minutes followed by +/- stimulation with 15ng/ml TNF-α (Cell signalling Technologies #8902LF) overnight at 37°C. In the morning, plates were equilibrated to room temperature for 30 minutes and 25μl of CellTiter-Glow (CellTiter-Glo 2.0 Assay, Promega # G9243) diluted 1:4 in PBS was added to each well and allowed to incubate for 10 minutes at room temperature. Luminescence was read on an Envision plate reader (Perkin Elmer). Percent viability values are calculated from separate dose response experiments identical to the percent rescue experiment except that no TNF is added to the cells. This assay is intended to identify compounds that not only don’t rescue, but are toxic themselves. 100% Viability is defined as the intensity value of the “no TNF” wells, cell treated with neither compound nor TNF. […]

RIPK3 kinase domain = target: T1, RIPK3 kinase domain (Homo sapiens, UniProt Q9Y572); test: ATP-competitive probe displacement assay, RIPK3; type: binding
T1 construct: purchased DiscoverX
T1 sequence (Q9Y572 21-287 limits assumed): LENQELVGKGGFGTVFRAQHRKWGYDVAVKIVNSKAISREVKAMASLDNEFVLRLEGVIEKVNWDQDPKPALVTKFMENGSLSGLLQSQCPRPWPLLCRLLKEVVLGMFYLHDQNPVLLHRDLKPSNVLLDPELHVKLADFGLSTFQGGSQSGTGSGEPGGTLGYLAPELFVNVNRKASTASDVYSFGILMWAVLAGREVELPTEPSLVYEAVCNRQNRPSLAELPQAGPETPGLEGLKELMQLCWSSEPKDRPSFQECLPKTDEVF
Protocol: (§1) Compound binding constants (KDs) were determined at DiscoverX using their KINOMEscan assay platform. This competition binding assay was previously described in Karaman et al. (2008)[18]. Briefly, full length MLKL was expressed in HEK-293 cells as a fusion with an NFκB DNA binding domain and subsequently tagged with a qPCR detection amplicon via interaction with NFκB. […] Twenty microliters of binding reactions were carried out in 384-well polypropylene plates for 1 hour at room temperature. Beads were subsequently washed and resuspended in elution buffer for 30 minutes at room temperature with shaking. The concentration of MLKL in the eluates was measured by qPCR and compound binding constants were calculated using a standard dose-response curve.
(§2) A similar approach was used to measure binding affinities for RIPK1 and RIPK3 kinase domains.

full length MLKL = target: T2, full length MLKL (Homo sapiens, UniProt Q8NB16); test: KINOMEscan ATP-competitive probe displacement (competition binding) assay, MLKL; conditions: average of duplicates
T2 construct: purchased DiscoverX (KINOMEscan service); host or cells: HEK-293
T2 sequence (Q8NB16 1-471): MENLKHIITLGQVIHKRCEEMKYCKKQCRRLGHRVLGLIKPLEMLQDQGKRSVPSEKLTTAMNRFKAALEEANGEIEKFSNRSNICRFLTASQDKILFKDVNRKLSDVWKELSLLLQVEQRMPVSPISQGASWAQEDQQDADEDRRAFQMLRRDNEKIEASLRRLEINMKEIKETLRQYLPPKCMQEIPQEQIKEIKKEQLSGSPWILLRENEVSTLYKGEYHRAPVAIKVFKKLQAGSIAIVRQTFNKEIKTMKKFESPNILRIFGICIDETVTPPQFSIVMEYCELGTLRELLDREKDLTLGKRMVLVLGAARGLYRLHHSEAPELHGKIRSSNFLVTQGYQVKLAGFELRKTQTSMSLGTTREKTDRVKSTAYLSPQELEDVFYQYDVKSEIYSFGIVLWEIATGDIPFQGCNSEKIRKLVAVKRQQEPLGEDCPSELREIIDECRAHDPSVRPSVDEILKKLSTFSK
Protocol: as §1, with “This competition binding assay was previously described in Karaman et al. (2008)[18].” left out
as §2

SMILES	compound concentration at which cell viability became an issue (FADD (-/-) Jurkat cells) [nM]	displacement of the ATP probe from / binding to RIPK3 (in words) (RIPK3 kinase domain)	Kd (RIPK3 kinase domain; average of duplicates) [nM]	Kd (full length MLKL) [nM]
CN(c1ccc(NC(=O)Nc2ccc(OC(F)(F)F)cc2)cc1)c1ccnc(Nc2cccc(S(N)(=O)=O)c2)n1 [cpd 1, reference compound]	> 2000	–	–	–
Nc1nccnc1C(=O)O[C@@H](C(=O)Nc1ccc(F)cc1)c1ccccc1 [cpd 4, 3-Amino-pyrazine-2-carboxylic acid (R)-(4-fluorophenylcarbamoyl)-phenyl-methyl ester]	–	without binding RIPK1 or RIPK3	> 30000	230
